The source of these data is ChEMBL document CHEMBL3244230, “Synthesis and gastric antisecretory properties of 15-deoxy-16-hydroxyprostaglandin E analogues” (1977).

Assay [1] relates to Canis familiaris. As to the kind of experiment: Gastric antisecretory activity in Mongrel dog with heidenhain pouch assessed as inhibition of histamine-induced total acid output at 30 ug/kg, iv by titrimetric method. The class given is functional, organism-based. Conditions: Canis lupus familiaris.
Assay [2] deals with Canis familiaris. The assay can be described thus: Gastric antisecretory activity in iv dosed Mongrel dog with heidenhain pouch assessed as inhibition of histamine-induced total acid output by titrimetric method. The format is functional. The following applies: Canis lupus familiaris, read-out: ID50 (the source's name).
In assay [3] the test system is Canis familiaris. As to the kind of experiment: Gastric antisecretory activity in Mongrel dog with heidenhain pouch assessed as inhibition of histamine-induced total acid output at 0.1 to 100 ug/kg, iv by titrimetric method relative to PGE1. The class given is functional, Canis lupus familiaris.

Activity calls are given as the source filed them. The rule behind the calls is not given here.

For the molecule `CCCC(C)(C)C(O)C/C=C/[C@H]1[C@H](O)CC(=O)[C@@H]1CCCCCCC(=O)OC` (mixture of isomers), in the assay with Canis familiaris [1], the inhibition entry was “inactive”.

On to `CCCCC(C)(O)CCC[C@H]1[C@H](O)CC(=O)[C@@H]1CCCCCCC(=O)OC` (mixture of isomers), for which the ED50 with Canis familiaris [2] stood at 5.9 µg/kg. The “fold change (FC)” value in the assay on Canis familiaris [3] came out at 0.98.

Turning to `CCCCC(O)C/C=C/[C@H]1[C@H](O)CC(=O)[C@@H]1C/C=C\CCCC(=O)OC` (mixture of isomers), in the assay on Canis familiaris [2], the ED50 came to 4.1 µg/kg. Also, the “fold change (FC)” value in the assay with Canis familiaris [3] was 1.9.

For `CCCCC(O)C(C)(C)/C=C/[C@H]1[C@H](O)CC(=O)[C@@H]1CCCCCCC(=O)OC` (mixture of isomers), the ED50 with Canis familiaris [2] amounted to 140 µg/kg. Also, the “fold change (FC)” value in the assay with Canis familiaris [3] was found to be 0.05.

Regarding `CCCCC(C)(O)C/C=C/[C@H]1[C@@H](O)CC(=O)[C@@H]1CCCCCCC(=O)OC` (mixture of isomers), in the assay on Canis familiaris [2], the ED50 came out at 16.9 µg/kg. Also, in the assay on Canis familiaris [3], the “fold change (FC)” value is 0.21.

For the molecule `CCCCC(C)(O)C/C=C\[C@H]1[C@H](O)CC(=O)[C@@H]1CCCCCCC(=O)OC` (mixture of isomers), the ED50 in the assay with Canis familiaris [2] was 39.8 µg/kg. In addition, the “fold change (FC)” value in the assay with Canis familiaris [3] was found to be 0.17.

Consider `CCCCC(O)C/C=C/[C@H]1[C@H](O)CC(=O)[C@@H]1CCCCCCC(=O)OC` (mixture of isomers), for which, in the assay with Canis familiaris [2], the ED50 stood at 5.4 µg/kg. Moreover, the “fold change (FC)” value in the assay with Canis familiaris [3] is given as 0.7.

For the molecule `CCCCC[C@H](O)/C=C/[C@H]1[C@H](O)CC(=O)[C@@H]1CCCCCCC(=O)O` [ALPROSTADIL], in the assay with Canis familiaris [2], the ED50 turned out to be 6.7 µg/kg.

For the molecule `CCCCC(O)(CC)C/C=C/[C@H]1[C@H](O)CC(=O)[C@@H]1CCCCCCC(=O)OC` (mixture of isomers), the ED50 in the assay with Canis familiaris [2] amounted to 27.8 µg/kg. Moreover, the “fold change (FC)” value with Canis familiaris [3] worked out at 0.21.

In the case of `CCCCC(C)(O)C/C=C/[C@H]1[C@H](O)CC(=O)[C@@H]1CCCCCCC(=O)OC` (mixture of isomers) [MISOPROSTOL], in the assay with Canis familiaris [2], the ED50 came out at 0.16 µg/kg. Moreover, the “fold change (FC)” value with Canis familiaris [3] was 47.8.

As to `CCCCCC(C)(O)C/C=C/[C@H]1[C@H](O)CC(=O)[C@@H]1CCCCCCC(=O)OC` (mixture of isomers), the ED50 in the assay on Canis familiaris [2] came to 0.31 µg/kg. Also, the “fold change (FC)” value in the assay on Canis familiaris [3] is 19.9.

`CCCCC[C@H](O)/C=C/[C@H]1[C@H](O)CC(=O)[C@@H]1CCCCCCC(=O)OC`: the ED50 in the assay on Canis familiaris [2] came to 3.8 µg/kg. Moreover, the “fold change (FC)” value in the assay with Canis familiaris [3] came out at 2.3.

On to `CCCCC(C)(O)C/C=C/[C@H]1CCC(=O)[C@@H]1CCCCCCC(=O)O` (mixture of isomers), for which, in the assay with Canis familiaris [2], the ED50 turned out to be 4.3 µg/kg. The “fold change (FC)” value with Canis familiaris [3] came out at 1.5.

`CCCCC(C)(O)C/C=C/[C@H]1[C@H](O)CC(=O)[C@@H]1C/C=C\CCCC(=O)OC` (mixture of isomers): the ED50 in the assay on Canis familiaris [2] was determined as 0.3 µg/kg. Besides, the “fold change (FC)” value with Canis familiaris [3] is recorded as 24.9.
